In test [1] the target is T1, Human PDGFRβ, cytoplasmic domain (GST-PDGFRβ) (Homo sapiens, UniProt P09619).
T1 construct: made in house
The experiment in a line: Human PDGFRβ biochemical inhibition assay (off-chip Mobility Shift Assay). As for the experimental part:
Human PDGFRβ Biochemical Inhibition Assay
The compounds described herein were tested for the ability to inhibit activity of PDGFRβ which was achieved via use of an off-chip Mobility Shift Assay (MSA). Human PDGFRβ, cytoplasmic domain [557-1106 (end) amino acids of accession number NP_002600.1 (SEQ ID NO: 3)] was expressed as N-terminal GST-fusion protein (88 kDa) using baculovirus expression system (SEQ ID NO: 4). GST-PDGFRβ was purified by using glutathione sepharose chromatography. Test compounds were dissolved in and diluted with dimethylsulfoxide (DMSO) to achieve 1 mM concentration. Then the solution was further diluted 25-fold with assay buffer to make the final test compound solution. The reference compound, Staurosporine, used as the assay positive control was prepared similarly. The 4× compound solution/substrate (CSKtide, 1000 nM)/ATP (Km ATP)/Mg Metal (5 mM) was prepared with kit buffer (20 mM HEPES, 0.01% Triton X-100, 5 mM DTT, pH 7.5), and 2× kinase solution was prepared with assay buffer (20 mM HEPES, 0.01% Triton X-100, 1 mM DTT, pH 7.5). The 5 μL of 4× compound solution, […] of 4× Substrate/ATP/Metal solution, and […] of 2× kinase solution were mixed and incubated in a well of polypropylene 384 well microplate for 1 hour at room temperature. […] of Termination Buffer (QuickScout Screening Assist MSA; Carna Biosciences) was added to the well. The reaction mixture was applied to LabChip™ system (Perkin Elmer), and the product and substrate peptide peaks were separated and quantitated. The kinase reaction was evaluated by the product ratio calculated from peak heights of product(P) and substrate(S) peptides (P/(P+S)). The readout value of reaction control (complete reaction mixture) was set as a 0% inhibition, and the readout value of background (Enzyme(−)) was set as a 100% inhibition, then the percent inhibition of each test solution was calculated.
With respect to PDGFRβ activity: “+++” denotes an IC50 of less than 300 nM; “++” denotes an IC50 of from 300 nM to less than 1000 nM; and “+” denotes an IC50 of 1000 nM or more.

The target in test [2] is T2, Human PDGFRα, cytoplasmic domain (GST-PDGFRα) (Homo sapiens, UniProt P16234).
T2 construct: made in house
T2 sequence (P16234 550-1089 T674I): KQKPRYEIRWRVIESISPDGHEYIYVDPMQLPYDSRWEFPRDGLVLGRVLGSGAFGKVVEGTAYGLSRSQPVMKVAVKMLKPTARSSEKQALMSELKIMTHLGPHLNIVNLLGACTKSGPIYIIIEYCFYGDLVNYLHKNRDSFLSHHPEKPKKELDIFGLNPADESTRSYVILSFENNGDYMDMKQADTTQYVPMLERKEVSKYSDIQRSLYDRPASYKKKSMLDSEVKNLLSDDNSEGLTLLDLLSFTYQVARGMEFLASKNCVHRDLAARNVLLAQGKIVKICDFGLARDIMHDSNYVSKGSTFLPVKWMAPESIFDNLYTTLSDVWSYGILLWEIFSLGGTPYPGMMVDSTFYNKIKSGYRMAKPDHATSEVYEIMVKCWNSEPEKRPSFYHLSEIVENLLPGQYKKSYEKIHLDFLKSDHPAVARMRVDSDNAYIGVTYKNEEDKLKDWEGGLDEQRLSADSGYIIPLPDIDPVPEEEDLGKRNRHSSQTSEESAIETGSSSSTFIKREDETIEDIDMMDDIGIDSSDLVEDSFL
The experiment in a line: Human PDGFRα biochemical inhibition assay (off-chip Mobility Shift Assay).

Bounds are passed on as bounds.

T1 sequence (P09619 with tags, fused parts or gaps): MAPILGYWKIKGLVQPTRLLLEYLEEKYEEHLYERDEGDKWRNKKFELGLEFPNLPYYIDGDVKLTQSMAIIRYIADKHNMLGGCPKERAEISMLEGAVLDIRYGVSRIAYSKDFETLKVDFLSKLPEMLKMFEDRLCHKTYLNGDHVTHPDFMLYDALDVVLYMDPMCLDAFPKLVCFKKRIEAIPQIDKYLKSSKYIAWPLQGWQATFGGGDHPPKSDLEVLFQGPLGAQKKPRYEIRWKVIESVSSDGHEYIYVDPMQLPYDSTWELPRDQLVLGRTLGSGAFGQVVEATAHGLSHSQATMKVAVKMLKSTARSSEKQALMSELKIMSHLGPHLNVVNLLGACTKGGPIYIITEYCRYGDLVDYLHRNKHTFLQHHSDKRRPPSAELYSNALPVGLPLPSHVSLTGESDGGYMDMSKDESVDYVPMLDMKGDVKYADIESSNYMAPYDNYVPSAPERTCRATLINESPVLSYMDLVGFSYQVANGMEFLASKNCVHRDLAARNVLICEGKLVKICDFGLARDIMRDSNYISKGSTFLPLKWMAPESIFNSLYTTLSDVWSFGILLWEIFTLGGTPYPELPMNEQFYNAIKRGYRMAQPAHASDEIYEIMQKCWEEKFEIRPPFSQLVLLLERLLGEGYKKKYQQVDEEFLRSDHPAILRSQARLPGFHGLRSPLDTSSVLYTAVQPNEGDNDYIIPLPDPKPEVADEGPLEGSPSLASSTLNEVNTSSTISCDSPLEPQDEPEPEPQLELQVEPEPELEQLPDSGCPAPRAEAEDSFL

As a reminder, the IC50 is the concentration needed to halve the response being measured. Take `Cc1cncc(C(=O)Nc2cccc([C@H](C)Nc3cnc4cc(F)c(F)cc4c3)c2)c1` [Compound 30, (S)-N-(3-(1-((6,7-difluoroquinolin-3-yl)amino)ethyl)phenyl)-5-methylnicotinamide]: the IC50 in test [1] is 300 to 1000 nM; in test [2], < 300 nM.
With `Cc1cncc(C(=O)Nc2cccc(CNc3cnc4ccccc4n3)c2)c1` [Compound 31, 5-methyl-N-(3-((quinoxalin-2-ylamino)methyl)phenyl) nicotinamide], the IC50 in test [1] and in test [2] was < 300 nM throughout.
Take `COc1ccc2ncc(N[C@@H](C)c3cccc(NC(=O)c4cncc(C)c4)c3)nc2c1` [Compound 32, (S)-N-(3-(1-((7-methoxyquinoxalin-2-yl)amino)ethyl)phenyl)-5-methylnicotinamide]: the IC50 in test [1] and in test [2] was < 300 nM in each case.
With `COc1ccc2nc(N[C@@H](C)c3cccc(NC(=O)c4cncc(C)c4)c3)cnc2c1` [Compound 33, (S)-N-(3-(1-((6-methoxyquinoxalin-2-yl)amino)ethyl)phenyl)-5-methylnicotinamide], the IC50 in test [1] and in test [2] was < 300 nM each time.
As to `Cc1cncc(C(=O)Nc2cccc([C@H](C)Nc3cnc4ccc(C(F)(F)F)cc4n3)c2)c1` [Compound 34, (S)-5-methyl-N-(3-(1-((7-(trifluoromethyl)quinoxalin-2-yl)amino)ethyl)phenyl) nicotinamide], the half-maximal inhibitory concentration (IC50) was 300 to 1000 nM in test [1] and < 300 nM in test [2].
The like results for `Cc1cncc(C(=O)Nc2cccc([C@H](C)Nc3cnc4cc(C(F)(F)F)ccc4n3)c2)c1` [Compound 35, (S)-5-methyl-N-(3-(1-((6-(trifluoromethyl)quinoxalin-2-yl)amino)ethyl)phenyl) nicotinamide] were, in that order, < 300 nM and < 300 nM.
Consider `Cc1cncc(C(=O)Nc2cccc([C@H](C)Nc3cnc4cc(F)c(F)cc4n3)c2)c1` [Compound 36, (S)-N-(3-(1-((6,7-difluoroquinoxalin-2-yl)amino)ethyl)phenyl)-5-methylnicotinamide], for which the IC50 in test [1] and in test [2] was < 300 nM each time.
With `Cc1cncc(C(=O)Nc2cccc([C@H](C)Nc3cnc4cccc(Cl)c4n3)c2)c1` [Compound 37, (S)-N-(3-(1-((8-chloroquinoxalin-2-yl)amino)ethyl)phenyl)-5-methylnicotinamide], the IC50 in test [1] and in test [2] was < 300 nM in each case.
With `Cc1cncc(C(=O)Nc2cccc([C@H](C)Nc3cnc4ccc(C)cc4n3)c2)c1` [Compound 38, (S)-5-methyl-N-(3-(1-((7-methylquinoxalin-2-yl)amino)ethyl)phenyl)nicotinamide], the IC50 in test [1] and in test [2] was < 300 nM in each case.
Regarding `Cc1cncc(C(=O)Nc2cccc([C@H](C)Nc3cnc4ccc(Br)cc4n3)c2)c1` [Compound 39, (S)-N-(3-(1-((7-bromoquinoxalin-2-yl)amino)ethyl)phenyl)-5-methylnicotinamide], the IC50 in test [1] and in test [2] was < 300 nM throughout.
As to `Cc1cncc(C(=O)Nc2cccc([C@H](C)Nc3cnc4cc(F)ccc4n3)c2)c1` [Compound 40, (S)-N-(3-(1-((6-fluoroquinoxalin-2-yl)amino)ethyl)phenyl)-5-methylnicotinamide], the IC50 in test [1] and in test [2] was < 300 nM in each case.
For `Cc1cncc(C(=O)Nc2cccc([C@H](C)Nc3cnc4ccc(C5CC5)cc4n3)c2)c1` [Compound 41, (S)-N-(3-(1-((7-cyclopropylquinoxalin-2-yl)amino)ethyl)phenyl)-5-methylnicotinamide], the IC50 in test [1] and in test [2] was < 300 nM each time.
On to `Cc1cncc(C(=O)Nc2cccc([C@H](C)Nc3cnc4ccc(-c5cnn(C)c5)cc4n3)c2)c1` [Compound 42, (S)-5-methyl-N-(3-(1-((7-(1-methyl-1H-pyrazol-4-yl)quinoxalin-2-yl)amino)ethyl)phenyl)nicotinamide], for which the IC50 in test [1] and in test [2] was < 300 nM throughout.
Turning to `COc1ccc(NC(=O)c2cncc(C)c2)cc1CNc1cnc2ccccc2n1` [Compound 43, N-(4-methoxy-3-((quinoxalin-2-ylamino)methyl)phenyl)-5-methylnicotinamide], the IC50 in test [1] was ≥ 1000 nM; in test [2], 300 to 1000 nM.
For `Cc1cncc(C(=O)Nc2cccc([C@H](C)Nc3cnc4c(n3)CCCC4)c2)c1` [Compound 44, (S)-5-methyl-N-(3-(1-((5,6,7,8-tetrahydroquinoxalin-2-yl)amino)ethyl)phenyl) nicotinamide], the concentration for half-maximal inhibition (IC50) was ≥ 1000 nM in test [1] and < 300 nM in test [2].
As for `Cc1cncc(C(=O)Nc2cccc([C@H](C)Nc3cnc4c(c3)OCCN4)c2)c1` [Compound 45], the IC50 in test [1] is ≥ 1000 nM; in test [2], 300 to 1000 nM.
Turning to `C[C@H](Nc1cnc2cnn(C)c2n1)c1cccc(NC(=O)c2cnc3ccn(C)c3c2)c1` [Compound 46, (S)-1-methyl-N-(3-(1-((1-methyl-1H-pyrazolo[3,4-b]pyrazin-6-yl)amino)ethyl)phenyl)-1H-pyrrolo[3,2-b] pyridine-6-carboxamide], the IC50 in test [1] and in test [2] was < 300 nM each time.
As to `C[C@H](Nc1cnc2cnn(C)c2n1)c1cccc(NC(=O)c2cnc3cnn(C)c3c2)c1` [Compound 48, (S)-1-methyl-N-(3-(1-((1-methyl-1H-pyrazolo[3,4-b]pyrazin-6-yl)amino)ethyl)phenyl)-1H-pyrazolo[4,3-b] pyridine-6-carboxamide], the IC50 in test [1] and in test [2] was < 300 nM each time.
As for `C[C@H](Nc1cnc2cnn(C)c2n1)c1cccc(NC(=O)c2cnc3ccsc3c2)c1` [Compound 49, (S)-N-(3-(1-((1-methyl-1H-pyrazolo[3,4-b]pyrazin-6-yl)amino)ethyl)phenyl) thieno[3,2-b]pyridinc-6-carboxamide], the IC50 in test [1] and in test [2] was < 300 nM in each case.
With `C[C@H](Nc1cnc2cnn(C)c2n1)c1cccc(NC(=O)c2ccc3ccn(C)c3c2)c1` [Compound 50, (S)-1-methyl-N-(3-(1-((1-methyl-1H-pyrazolo[3,4-b]pyrazin-6-yl)amino)ethyl)phenyl)-1H-indole-6-carboxamide], the IC50 in test [1] and in test [2] was < 300 nM in each case.
Take `C[C@H](Nc1cnc2cnn(C)c2n1)c1cccc(NC(=O)C2CC2C(F)(F)F)c1` (stereo partly drawn) [Compound 52, N-(3-((S)-1-((1-methyl-1H-pyrazolo[3,4-b]pyrazin-6-yl)amino)ethyl)phenyl)-2-(trifluoromethyl)cyclopropane-1-carboxamide]: the results for the IC50 in test [1] and in test [2] were ≥ 1000 nM and 300 to 1000 nM, respectively.
In the case of `C[C@H](Nc1cnc2cnn(C)c2n1)c1cccc(NC(=O)[C@H]2C[C@H]2C(F)(F)F)c1` [Compound 53, (1S,2R)-N-(3-((S)-1-((1 methyl-1H-pyrazolo[3,4-d]pyrazin-6-yl)amino)ethyl)phenyl)-2-(trifluoromethyl)cyclopropane-1-carboxamide], the IC50 in test [1] and in test [2] was ≥ 1000 nM each time.
Consider `C[C@H](Nc1cnc2cnn(C)c2n1)c1cccc(NC(=O)N2CCCC(C(F)(F)F)C2)c1` (stereo partly drawn) [Compound 54, N-(3-((S)-1-((1-methyl-1H-pyrazolo[3,4-b]pyrazin-6-yl)amino)ethyl)phenyl)-3-(trifluoromethyl)piperidine-1-carboxamide], for which the IC50 in test [1] and in test [2] was < 300 nM each time.
